Laboratory results: patent US20250382286A1, “CO-CRYSTAL OF AFICAMTEN, AND PREPARATION METHOD THEREFOR AND USE THEREOF” (CRYSTAL PHARMACEUTICAL (SUZHOU) CO., LTD., priority 2023, published 2025)
Entries after “also recorded” stand apart in the source; their conditions may differ.

Tests used:
Type in all cases: physicochemical
[1] = Stability under mechanical force (ball milling); conditions: milled 5 minutes at 500 rpm, XRPD
Procedure: The crystalline form of the sample before and after ball milling were tested by XRPD, and the XRPD overlay is depicted in FIG. 6.

[2] = Physical and chemical stability on storage (XRPD, HPLC)
Procedure: Chemical purity and crystalline form were tested by HPLC and XRPD.

[3] = Hygroscopicity and humidity stability by DVS
Procedure: DVS data in the present disclosure were measured via an SMS (Surface Measurement Systems Ltd.) intrinsic DVS instrument. The instrument control software is DVS-Intrinsic control software. Typical Parameters for DVS test are as follows: • Temperature: 25° C. • Gas and flow rate: N2, 200 mL/min • RH range: 0% RH to 95% RH
DVS analyzer was applied to evaluate the hygroscopicity of Form CSI with an appropriate amount. The mass changes at each relative humidity were recorded in a cycle of 0% RH-95%RH-0%RH. The crystalline form of the sample before and after DVS were tested by XRPD.

[4] = 25° C./60% RH, 9 months, sealed container
[5] = 40° C./75% RH, 9 months, sealed container
[6] = 60° C./75% RH, 3 months, sealed container

CCc1nc(-c2ccc3c(c2)CC[C@H]3NC(=O)c2cnn(C)c2)no1.CCc1nc(-c2ccc3c(c2)CC[C@H]3NC(=O)c2cnn(C)c2)no1.O=C(O)C(O)C(O)C(=O)O [Form CSI]
Crystalline form after ball milling [1]: doesn't change; also recorded: no form change | Time stable on storage (no change of crystalline form) ([2]; 25° C./60% RH): at least 9 months | Purity [2, 4]: 99.98% | Solid form [2, 4]: Form CSI | Time stable on storage (no change of crystalline form) ([2]; 40° C./75% RH): at least 9 months | Purity [2, 5]: 99.99% | Solid form [2, 5]: Form CSI | Time stable on storage (no change of crystalline form) ([2]; 60° C./75% RH): at least 3 months | Purity [2, 6]: 99.98% | Solid form [2, 6]: Form CSI | Purity ([2]; Initial): 99.98% | Solid form ([2]; Initial): Form CSI | Mass increase (weight gain) at 80% RH ([3]; DVS, 25° C., equilibrium at 80% RH): 0.18% | Crystalline form after humidity cycle ([3]; cycle of 0% RH-95%RH-0%RH, XRPD): remains unchanged
